Here are results for 2 compounds from ChEMBL document CHEMBL1137218, “Long hydrocarbon chain ether diols and ether diacids that favorably alter lipid disorders in vivo” (J Med Chem, 2004).

Assay type in all cases: functional
The test system of test [1] is Rattus norvegicus. The test is described as follows: Serum HDL cholesterol levels in female obese rats two weeks post treatment at 3 mg/kg oral dose; pretreatment value = 59 mg/dL.
The subject of test [2] is Rattus norvegicus. The test is described as follows: Serum Triglyceride levels in female obese rats two weeks post treatment at 3 mg/kg oral dose; pretreatment value = 769 mg/dL.
The subject of test [3] is Rattus norvegicus. Description: Serum Triglyceride levels in female obese rats one week post treatment at 10 mg/kg oral dose; pretreatment value = 943 mg/dL.
For test [4], the system named is Rattus norvegicus. The test is described as follows: Serum HDL cholesterol levels in female obese rats two weeks post treatment at 30 mg/kg oral dose; pretreatment value = 42 mg/dL.
Test [5] concerns Rattus norvegicus. Description: Insulin levels in female obese rats two weeks post treatment at 30 mg/kg oral dose; pretreatment value = 9.3 ng/mL.
For test [6], the system named is Rattus norvegicus. Description: Serum NEFA levels in female obese rats one week post treatment at 3 mg/kg oral dose; pretreatment value = 1.2 mg/dL.
Test [7] deals with Rattus norvegicus. The test is described as follows: Serum HDL cholesterol levels in female obese rats two weeks post treatment at 10 mg/kg oral dose; pretreatment value = 56 mg/dL.
Test [8] concerns Rattus norvegicus. Description: Serum Triglyceride levels in female obese rats one week post treatment at 10 mg/kg oral dose; pretreatment value = 1185 mg/dL.
In test [9] the test system is Rattus norvegicus. The test is described as follows: Serum HDL cholesterol levels in female obese rats two weeks post treatment at 30 mg/kg oral dose; pretreatment value = 49 mg/dL.
Test [10] relates to Rattus norvegicus. Description: Serum NEFA levels in female obese rats two weeks post treatment at 30 mg/kg oral dose; pretreatment value = 1.2 mg/dL.
Test [11] concerns Rattus norvegicus. Description: Serum Triglyceride levels in female obese rats one week post treatment at 100 mg/kg oral dose; pretreatment value = 1068 mg/dL.

As for `CC(C)(CO)CCCCOCCCCC(C)(C)CO`, the Activity in the test on Rattus norvegicus [1] turned out to be 79 mg/dL; with Rattus norvegicus [2], 934 mg/dL; in the test with Rattus norvegicus [3] it was 629 mg/dL; in the test on Rattus norvegicus [4], 222 mg/dL; with Rattus norvegicus [5], 17.4 ng/mL; in the test on Rattus norvegicus [6], 1.7 mg/dL. In the test on Rattus norvegicus [7], the Activity amounted to 134 mg/dL.

For the compound `CC(C)(CO)CCCCCOCCCCCC(C)(C)CO`, the Activity in the test on Rattus norvegicus [8] worked out at 1159 mg/dL; with Rattus norvegicus [9] it was 138 mg/dL; in the test on Rattus norvegicus [10], 0.82 mg/dL; in the test with Rattus norvegicus [11], 83 mg/dL.
